Reference: PMC12675575, “A BRET biosensor for measuring uncompetitive engagement of PRMT5 complexes in cells” (Nature Communications, 2025)
Values joined by “and” are separate entries in the source; they are usually repeats but may differ in a detail not shown here. Equal entries are not always repeated.

Biological target: T1, PRMT9 (Homo sapiens, UniProt Q6P2P2)
T1 construct: host or cells: HEK293
T1 sequence (Q6P2P2 1-845): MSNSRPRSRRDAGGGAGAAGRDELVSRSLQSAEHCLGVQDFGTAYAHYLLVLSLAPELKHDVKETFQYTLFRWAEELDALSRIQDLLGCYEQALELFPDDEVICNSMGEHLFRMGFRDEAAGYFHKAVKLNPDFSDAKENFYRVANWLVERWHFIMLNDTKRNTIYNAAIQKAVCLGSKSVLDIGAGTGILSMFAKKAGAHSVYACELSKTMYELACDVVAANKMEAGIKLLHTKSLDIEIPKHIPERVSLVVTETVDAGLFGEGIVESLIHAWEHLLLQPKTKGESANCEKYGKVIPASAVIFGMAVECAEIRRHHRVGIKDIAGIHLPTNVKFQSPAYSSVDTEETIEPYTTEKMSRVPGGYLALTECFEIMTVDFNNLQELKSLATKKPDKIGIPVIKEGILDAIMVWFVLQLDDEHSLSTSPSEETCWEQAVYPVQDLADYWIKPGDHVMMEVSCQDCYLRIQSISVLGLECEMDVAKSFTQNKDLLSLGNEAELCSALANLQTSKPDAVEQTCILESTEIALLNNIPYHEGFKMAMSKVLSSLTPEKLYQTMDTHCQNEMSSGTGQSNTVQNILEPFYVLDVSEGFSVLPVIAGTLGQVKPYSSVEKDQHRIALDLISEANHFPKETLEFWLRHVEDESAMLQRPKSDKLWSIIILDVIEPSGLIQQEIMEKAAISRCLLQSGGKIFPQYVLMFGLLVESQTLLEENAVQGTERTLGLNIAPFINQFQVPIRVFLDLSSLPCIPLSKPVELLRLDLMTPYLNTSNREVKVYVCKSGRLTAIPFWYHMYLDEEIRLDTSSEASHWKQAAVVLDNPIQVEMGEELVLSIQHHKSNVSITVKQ
Test: CBH-002 affinity curve, HEK293, PRMT9-NL fusion
Type: cell-based
Set-up: BRET, CBH-002 + DMSO / BRET, CBH-002 + GSK3326595: unit not given here
Details: for BRET, CBH-002 + DMSO / BRET, CBH-002 + GSK3326595: Figure S2D PRMT9-NL, log([CBH-002])
Method: HEK293 cells (ATCC) were cultured in DMEM (Thermo Fisher) + 10% (v/v) FBS (Seredigm), and HCT116 cells (Horizon Discovery, #PAR-034 and #R02-033) were cultured in McCoy’s 5A (Thermo Fisher) + 10% FBS, with incubation in a humidified, 37 °C/5% CO2 incubator. Cells were split 1–3 days prior to performing experiments and used at roughly 80% confluency. […] Cells were transfected according to the manufacturer’s protocol using FuGENE HD (Promega). NanoLuc fusion DNA was diluted into Transfection Carrier DNA (Promega) in Opti-MEM at a ratio of 1:9 (mass/mass), and FuGENE HD was added at a ratio of 1:3 (μg DNA:μL lipid). For experiments using WDR77, untagged WDR77 DNA (Promega) was used in place of Carrier DNA. Formed complexes were combined with cells resuspended to a density of 2 × 10^5 cells/mL in Opti-MEM + 1% FBS at a ratio of 1:20 (vol:vol). Cells were plated into a flask and incubated at 37 °C in a humidified 5% CO2 atmosphere for 18–24 h, before being lifted and seeded into 96-well non-binding surface-treated plates (Corning). Cells were seeded at a density of 2 × 10^5 cells/mL in Opti-MEM + 1% FBS in 100 μL (96-well). The BRET probe CBH-002 was prepared first as a 100× stock in 100% DMSO (Sigma) and then diluted to a 20× stock in NanoBRET Tracer Dilution buffer (Promega). Test compounds were prepared as 1000× stocks in 100% DMSO and diluted to 10× stocks in Opti-MEM to prepare working stocks. […] NanoBRET Complete 3x Substrate was prepared by combining Nano-Glo Substrate and Extracellular NanoLuc Inhibitor in Opti-MEM, according to the manufacturer’s protocol (Promega). NanoBRET Complete 3× Substrate was added to cells and plates were measured on either a PheraSTAR FSX equipped with 450 nm (donor) and 610 nm (acceptor) filters, or a GloMAX Discover equipped with 450/8 nm BP (donor) and 600 nm LP (acceptor) filters, using a 0.3 s integration time.
EC50 values were obtained by fitting the BRET probe and compound affinity curves to a sigmoidal four-parameter fit model in Graphpad Prism:1 Y=Ymin+Ymax−Ymin/1+10^LogEC50−Xh where h is the Hill Slope.

## O=C(CCc1ccc2n1[B-](F)(F)[N+]1=C(c3ccc[nH]3)C=CC1=C2)NCCCCC(=O)N1CCC(Nc2cc(C(=O)NC[C@H](O)CN3CCc4ccccc4C3)ncn2)CC1 [CBH-002]
uM 0.04576
  BRET, CBH-002 + DMSO: 3.434 and 3.347 and 3.1287
  BRET, CBH-002 + GSK3326595: 3.008 and 3.39 and 2.997
uM 0.52288
  BRET, CBH-002 + DMSO: 4.122 and 5.87 and 4.53
  BRET, CBH-002 + GSK3326595: 5.212 and 4.497 and 4.8771
uM 1
  BRET, CBH-002 + DMSO: 6.91 and 7.001 and 6.884
  BRET, CBH-002 + GSK3326595: 6.307 and 7.343 and 6.276
uM -0.43136
  BRET, CBH-002 + DMSO: 2.433 and 2.903 and 2.863
  BRET, CBH-002 + GSK3326595: 2.897 and 2.374 and 2.8944
uM -0.90849
  BRET, CBH-002 + DMSO: 2.344 and 2.202 and 2.303
  BRET, CBH-002 + GSK3326595: 2.454 and 2.214 and 2.074
uM -1.20952
  BRET, CBH-002 + DMSO: 1.839 and 2.321 and 2.413
  BRET, CBH-002 + GSK3326595: 2.422 and 2.062 and 3.074
uM -1.68664
  BRET, CBH-002 + DMSO: 1.998 and 2.054 and 2.063
  BRET, CBH-002 + GSK3326595: 2.126 and 2.181 and 2.003
uM -1.98767
  BRET, CBH-002 + DMSO: 2.1788 and 2.218 and 2.268
  BRET, CBH-002 + GSK3326595: 2.04 and 1.965 and 2.075
uM -2.46479
  BRET, CBH-002 + GSK3326595: 2.072 and 1.988 and 1.944
uM -2.94191
  BRET, CBH-002 + DMSO: 1.888 and 2.124 and 2.713
  BRET, CBH-002 + GSK3326595: 1.993 and 2.159 and 2.4012
HEK293, PRMT9-NL
  CBH-002 engagement at PRMT9: did not show engagement
